The source of these data is patent publication US20240158370A1, “CK1 alpha AND DUAL CK1 alpha / GSPT1 DEGRADING COMPOUNDS” (Innovo Therapeutics, Inc., priority 2022, published 2024).

Format in all cases: cell-based
One test concerns the target T1, CK1α (Homo sapiens, UniProt P48729+Q96SW2).
T1 construct: CSNK1A1-HiBit KI HEK293(LgBit) Cells; host or cells: HEK293(LgBit) knock-in cells
As to the kind of experiment: HiBiT degradation assay, CK1α, Procedure A. The conditions noted are these: six hours incubation. The procedure, abridged:
(§1)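 10-pt dose response, 10–0.005 μM, 0.1% DMSO; cells 1×10^6/ml in DMEM/10% FBS, 6 h, 37° C; HiBiT lytic detection, luminescence; DC50 + Ymin by 4-parameter fit.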
A general note: The HiBiT peptide binds its large partner to form an active luciferase.

The subject of a further test is Z-138 cells. As to the kind of experiment: Z-138 Proliferation Assay (Cell Titer-Glo). The conditions noted are these: 72 hours; for Ymin (%): % remaining (percent of DMSO control); for EC50: Homo sapiens, Cell Titer-Glo, 4-parameter curve fit. How it is done: Z-138 Proliferation Assay
Z-138 cells were cultured in IMDM Medium supplemented with 10% heat in-activated fetal bovine serum and 1% Penicillin-Streptomycin.
10 mM stocks of compound were made from fresh powder. DMSO was added to solid compound so that the final concentration was 10 mM. Compounds were vortexed and allowed to sit for 5 minutes to ensure complete solubility. Solvated compound was aliquoted into 1 ml Eppendorf tubes and stored in a −20° C. freezer.
Z-138 cells were maintained in culture using standard cell culturing techniques.
Cells were maintained at a density of 0.8×10^6 cells/ml.
Re-constitute cell titer-glo reagent according to manufacturer's protocol.
Z-138 cells were removed from culture and cell viability and density were determined using a CellDrop™ Automated Cell Counter with Tryphan blue stain according to manufacturer's protocols. Cells were centrifuged and resuspended using fresh media to a cell density of 0.1×10^6 cells/ml. […] 40 μl of cell suspension was added to the wells of a 384 well tissue culture plate (4,000 cells/well final). Upon completing the addition of the cells to the plate, the plates were centrifuged for 30 seconds at 300 rpms to help the cells settle and to bring air bubbles to the top of the wells. Air bubbles were popped using a pipette tip.
10-point dose response curves were performed using a D300e Digital Dispenser. The highest concentration of compound used in the assay was 10,000 nM. 1:2 dilutions were performed over a 10-point range with the final DMSO concentration being 0.1%. The cells were cultured for 72 hours in the presence of compound.
After 72 hours, the cell plates were removed from the incubator and allowed to equilibrate to room temperature (about 15 minutes). 20 μl of cell titer-glo reagent was added to each well of the 384 well plate. Incubated the plate for 30 minutes in the dark. After 30 minutes, ensured that there were no air bubbles in the plate (popped bubbles with pipette tip if necessary) and analyzed plate using a luminometer.
EC50 curves were generated using Prism Graph Pad. In brief, POCs (percent of control, compound/DMSO control×100) were plotted against the compound concentrations (log scale). EC50 curves were generated using a 4-parameter curve fit.

The target in the next test is GSPT1 (Homo sapiens, UniProt P15170+Q96SW2). The test can be described thus: HiBiT degradation assay, GSPT1, Procedure A. Also noted: HiBit-GSPT1 KI HEK293(LgBit) Cells; host or cells: HEK293(LgBit) knock-in cells. As to conditions: six hours incubation. The procedure, abridged: as §1
Chain of GSPT1 (P15170 whole entry): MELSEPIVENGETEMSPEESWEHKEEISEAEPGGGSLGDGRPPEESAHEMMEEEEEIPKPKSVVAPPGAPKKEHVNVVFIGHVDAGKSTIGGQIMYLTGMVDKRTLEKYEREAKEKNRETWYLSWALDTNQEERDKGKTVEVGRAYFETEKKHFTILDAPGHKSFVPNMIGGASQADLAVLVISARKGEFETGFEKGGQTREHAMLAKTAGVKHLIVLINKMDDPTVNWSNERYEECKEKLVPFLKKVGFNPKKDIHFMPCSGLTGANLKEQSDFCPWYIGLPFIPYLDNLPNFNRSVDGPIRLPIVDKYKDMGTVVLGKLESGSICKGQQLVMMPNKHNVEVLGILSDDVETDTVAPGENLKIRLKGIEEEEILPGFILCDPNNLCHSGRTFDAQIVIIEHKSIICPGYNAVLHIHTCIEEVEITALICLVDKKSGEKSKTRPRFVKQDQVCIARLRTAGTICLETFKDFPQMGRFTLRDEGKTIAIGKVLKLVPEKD
Chain of GSPT1 (Q96SW2 whole entry): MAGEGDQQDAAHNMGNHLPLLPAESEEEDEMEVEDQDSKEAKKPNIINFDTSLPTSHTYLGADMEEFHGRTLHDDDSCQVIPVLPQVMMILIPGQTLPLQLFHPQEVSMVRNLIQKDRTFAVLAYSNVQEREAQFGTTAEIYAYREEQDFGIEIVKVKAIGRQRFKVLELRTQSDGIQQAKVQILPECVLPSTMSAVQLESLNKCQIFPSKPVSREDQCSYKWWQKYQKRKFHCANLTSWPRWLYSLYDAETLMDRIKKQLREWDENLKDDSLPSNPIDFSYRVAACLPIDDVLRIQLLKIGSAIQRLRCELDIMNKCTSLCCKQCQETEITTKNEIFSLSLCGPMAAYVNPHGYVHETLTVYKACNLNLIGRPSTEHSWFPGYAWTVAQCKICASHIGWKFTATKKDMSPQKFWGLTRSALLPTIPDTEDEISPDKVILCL
Chain of GSPT1 (Q16531 whole entry partner): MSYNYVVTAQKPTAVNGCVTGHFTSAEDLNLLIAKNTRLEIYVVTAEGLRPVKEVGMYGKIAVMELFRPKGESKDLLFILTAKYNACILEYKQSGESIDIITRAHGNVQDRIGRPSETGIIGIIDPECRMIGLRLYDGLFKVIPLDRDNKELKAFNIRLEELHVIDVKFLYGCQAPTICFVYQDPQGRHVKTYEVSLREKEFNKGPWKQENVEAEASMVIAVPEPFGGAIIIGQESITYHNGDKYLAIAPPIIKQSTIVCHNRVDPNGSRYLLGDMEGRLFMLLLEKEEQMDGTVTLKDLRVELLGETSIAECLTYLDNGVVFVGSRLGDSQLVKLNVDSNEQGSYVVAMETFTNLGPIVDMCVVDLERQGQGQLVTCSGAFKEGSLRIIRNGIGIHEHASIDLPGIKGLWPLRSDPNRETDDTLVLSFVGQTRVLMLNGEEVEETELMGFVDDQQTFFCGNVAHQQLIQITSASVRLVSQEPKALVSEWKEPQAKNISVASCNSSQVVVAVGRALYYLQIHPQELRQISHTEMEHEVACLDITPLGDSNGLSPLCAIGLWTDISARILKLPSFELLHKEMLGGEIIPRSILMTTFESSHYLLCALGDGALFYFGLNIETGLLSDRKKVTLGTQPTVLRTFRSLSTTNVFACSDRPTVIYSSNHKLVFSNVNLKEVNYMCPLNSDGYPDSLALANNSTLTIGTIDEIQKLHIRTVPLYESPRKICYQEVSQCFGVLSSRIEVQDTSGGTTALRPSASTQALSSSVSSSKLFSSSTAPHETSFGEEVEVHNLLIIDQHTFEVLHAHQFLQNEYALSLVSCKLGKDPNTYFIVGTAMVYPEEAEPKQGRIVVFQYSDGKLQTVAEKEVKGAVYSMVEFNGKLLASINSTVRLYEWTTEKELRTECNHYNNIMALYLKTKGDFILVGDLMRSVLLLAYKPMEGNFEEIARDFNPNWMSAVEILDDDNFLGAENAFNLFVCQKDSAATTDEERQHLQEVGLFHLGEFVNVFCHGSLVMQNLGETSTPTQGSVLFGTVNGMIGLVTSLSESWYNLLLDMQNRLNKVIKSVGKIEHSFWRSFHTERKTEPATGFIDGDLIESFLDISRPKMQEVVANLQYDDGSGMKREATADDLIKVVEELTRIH

T1 sequence (P48729 whole entry): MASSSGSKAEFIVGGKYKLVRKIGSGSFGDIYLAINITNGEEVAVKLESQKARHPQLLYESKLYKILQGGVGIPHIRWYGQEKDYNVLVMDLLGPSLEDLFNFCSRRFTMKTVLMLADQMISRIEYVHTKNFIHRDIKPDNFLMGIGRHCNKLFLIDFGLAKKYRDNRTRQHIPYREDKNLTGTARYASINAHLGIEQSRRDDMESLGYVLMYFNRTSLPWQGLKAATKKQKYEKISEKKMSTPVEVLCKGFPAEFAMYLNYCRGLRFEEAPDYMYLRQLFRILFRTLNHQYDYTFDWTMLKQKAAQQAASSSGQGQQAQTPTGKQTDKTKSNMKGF
T1 sequence (Q96SW2 whole entry): as the sequence (Q96SW2 whole entry) above
T1 sequence (Q16531 whole entry partner): as the sequence (Q16531 whole entry partner) above

As usually defined, the DC50 is the midpoint of the concentration-degradation curve. One may read the EC50 as the concentration needed to bring the measured effect to its halfway point. In the case of `Cn1cc(-c2ccc3c(c2)CN(C2CCC(=O)NC2=O)C3=O)nc1-c1ccccc1` (stereo not drawn) [Example 25, 3-(5-(1-Methyl-2-phenyl-1H-imidazol-4-yl)-1-oxoisoindolin-2-yl)piperidine-2,6-dione], on CK1α, the “CK1α Ymin” value is given as “C (C = 0-10% remaining)” and the 50% degradation concentration (DC50) was less than 0.025 µM. Also, in the test with Z-138 cells, the “Ymin (%)” value is reported as “D (0-10% remaining)” and the EC50 is less than 0.01 µM. Further, at GSPT1, the DC50 was no less than 0.025 µM and the “GSPT1 Ymin” value is given as “F (F = >75-100% remaining)”.
`O=C1CCC(N2Cc3cc(-c4cn(-c5ccccc5)cn4)ccc3C2=O)C(=O)N1` (stereo not drawn) [Example 32, 3-(1-Oxo-5-(1-phenyl-1H-imidazol-4-yl)isoindolin-2-yl)piperidine-2,6-dione]: at CK1α, the “CK1α Ymin” value is “D (D = >10- 25% remaining)” and the DC50 was less than 0.025 µM. In addition, in the test on Z-138 cells, the “Ymin (%)” value is recorded as “D (0-10% remaining)” and the EC50 was less than 0.01 µM. On GSPT1, the DC50 was less than 0.025 µM and the “GSPT1 Ymin” value was “E (E = >25-75% remaining)”.
`O=C1CCC(N2Cc3cc(-c4ccn(-c5ccccc5)n4)ccc3C2=O)C(=O)N1` (stereo not drawn) [Example 34, 3-(1-Oxo-5-(1-phenyl-1H-pyrazol-3-yl)isoindolin-2-yl)piperidine-2,6-dione]: on CK1α, the “CK1α Ymin” value is on record as “D (D = >10- 25% remaining)” and the DC50 is less than 0.025 µM. Further, in the test on Z-138 cells, the “Ymin (%)” value is on record as “E (>10-25% remaining)” and the EC50 lay within 0.01 to 0.1 µM. Moreover, at GSPT1, the DC50 was no less than 0.025 µM and the “GSPT1 Ymin” value is listed as “F (F = >75-100% remaining)”.
As to `Cn1nc(-c2ccc3c(c2)CN(C2CCC(=O)NC2=O)C3=O)cc1-c1ccccc1` (stereo not drawn) [Example 36, 3-(5-(1-Methyl-5-phenyl-1H-pyrazol-3-yl)-1-oxoisoindolin-2-yl) piperidine-2,6-dione], at CK1α, the “CK1α Ymin” value was “D (D = >10- 25% remaining)” and the DC50 is less than 0.025 µM. Moreover, in the test with Z-138 cells, the “Ymin (%)” value is reported as “E (>10-25% remaining)” and the EC50 lay in the range of 0.01 to 0.1 µM. In addition, on GSPT1, the DC50 is no less than 0.025 µM and the “GSPT1 Ymin” value was “F (F = >75-100% remaining)”.
For `O=C1CCC(N2Cc3cc(-c4coc(-c5ccccc5)n4)ccc3C2=O)C(=O)N1` (stereo not drawn) [Example 37, 3-(1-Oxo-5-(2-phenyloxazol-4-yl)isoindolin-2-yl)piperidine-2,6-dione], on CK1α, the “CK1α Ymin” value is listed as “D (D = >10- 25% remaining)” and the DC50 is less than 0.025 µM. In the test on Z-138 cells, the “Ymin (%)” value is “F (>25-50% remaining)” and the EC50 lay in the range of 0.01 to 0.1 µM. Moreover, at GSPT1, the DC50 was no less than 0.025 µM and the “GSPT1 Ymin” value is given as “F (F = >75-100% remaining)”.
With `O=C1CCC(N2Cc3cc(-c4cnoc4-c4ccccc4)ccc3C2=O)C(=O)N1` (stereo not drawn) [Example 39, 3-(1-Oxo-5-(5-phenylisoxazol-4-yl)isoindolin-2-yl)piperidine-2,6-dione], on CK1α, the “CK1α Ymin” value was “E (E = >25-75% remaining)” and the DC50 was less than 0.025 µM. Moreover, in the test on Z-138 cells, the “Ymin (%)” value is “D (0-10% remaining)” and the half-maximal effective concentration (EC50) was 0.1 to 0.5 µM. Besides, on GSPT1, the DC50 was no less than 0.025 µM and the “GSPT1 Ymin” value is recorded as “F (F = >75-100% remaining)”.
With `Cn1c(-c2ccccc2)cnc1-c1ccc2c(c1)CN(C1CCC(=O)NC1=O)C2=O` (stereo not drawn) [Example 40, 3-(5-(1-Methyl-5-phenyl-1H-imidazol-2-yl)-1-oxoisoindolin-2-yl)piperidine-2,6-dione], on CK1α, the “CK1α Ymin” value is given as “D (D = >10- 25% remaining)” and the DC50 is less than 0.025 µM. Also, in the test on Z-138 cells, the “Ymin (%)” value is reported as “D (0-10% remaining)” and the EC50 is less than 0.01 µM. At GSPT1, the half-maximal degradation concentration (DC50) was less than 0.025 µM and the “GSPT1 Ymin” value is given as “D (D = >10- 25% remaining)”.
For the compound `Cn1cc(-c2ccccc2)nc1-c1ccc2c(c1)CN(C1CCC(=O)NC1=O)C2=O` (stereo not drawn) [Example 41, 3-(5-(1-Methyl-4-phenyl-1H-imidazol-2-yl)-1-oxoisoindolin-2-yl)piperidine-2,6-dione], at CK1α, the “CK1α Ymin” value is listed as “D (D = >10- 25% remaining)” and the DC50 is less than 0.025 µM. In the test on Z-138 cells, the “Ymin (%)” value is “D (0-10% remaining)” and the EC50 is 0.01 to 0.1 µM. Also, on GSPT1, the DC50 is no less than 0.025 µM and the “GSPT1 Ymin” value is “F (F = >75-100% remaining)”.
For `O=C1CCC(N2Cc3cc(-c4cc(-c5ccccc5)no4)ccc3C2=O)C(=O)N1` (stereo not drawn) [Example 43, 3-(1-Oxo-5-(3-phenylisoxazol-5-yl)isoindolin-2-yl)piperidine-2,6-dione], on CK1α, the “CK1α Ymin” value is “D (D = >10- 25% remaining)” and the DC50 was less than 0.025 µM. In the test with Z-138 cells, the “Ymin (%)” value was “F (>25-50% remaining)” and the EC50 lay in the range of 0.1 to 0.5 µM. Moreover, at GSPT1, the DC50 is no less than 0.025 µM and the “GSPT1 Ymin” value was “F (F = >75-100% remaining)”.
Regarding `Cn1cc(-c2c(-c3ccc4c(c3)CN(C3CCC(=O)NC3=O)C4=O)nc(C3CC3)n2C)cn1` (stereo not drawn) [Example 46, 3-(5-(2-Cyclopropyl-1-methyl-5-(1-methyl-1H-pyrazol-4-yl)-1H-imidazol-4-yl)-1-oxoisoindolin-2-yl)piperidine-2,6-dione], on CK1α, the “CK1α Ymin” value is “C (C = 0-10% remaining)” and the DC50 is less than 0.025 µM. Besides, in the test on Z-138 cells, the “Ymin (%)” value is “D (0-10% remaining)” and the EC50 was less than 0.01 µM. At GSPT1, the DC50 was no less than 0.025 µM and the “GSPT1 Ymin” value is reported as “F (F = >75-100% remaining)”.
`O=C1CCC(N2Cc3cc(-c4nccn4C4CCCCC4)ccc3C2=O)C(=O)N1` (stereo not drawn) [Example 48, 3-(5-(1-Cyclohexyl-1H-imidazol-2-yl)-1-oxoisoindolin-2-yl)piperidine-2,6-dione]: on CK1α, the “CK1α Ymin” value is on record as “C (C = 0-10% remaining)” and the DC50 was less than 0.025 µM. In addition, in the test on Z-138 cells, the “Ymin (%)” value is given as “D (0-10% remaining)” and the EC50 was less than 0.01 µM. Also, on GSPT1, the DC50 is less than 0.025 µM and the “GSPT1 Ymin” value was “D (D = >10- 25% remaining)”.
In the case of `CCn1nc(-c2ccccc2)c(-c2ccc3c(c2)CN(C2CCC(=O)NC2=O)C3=O)n1` (stereo not drawn) [Example 51, 3-(5-(2-Ethyl-5-phenyl-2H-1,2,3-triazol-4-yl)-1-oxoisoindolin-2-yl)piperidine-2,6-dione], at CK1α, the “CK1α Ymin” value was “C (C = 0-10% remaining)” and the DC50 was less than 0.025 µM. In addition, in the test on Z-138 cells, the “Ymin (%)” value is “D (0-10% remaining)” and the EC50 is 0.01 to 0.1 µM. Further, at GSPT1, the DC50 was no less than 0.025 µM and the “GSPT1 Ymin” value is given as “F (F = >75-100% remaining)”.
For `Cn1c(C(F)(F)F)nc(-c2ccc3c(c2)CN(C2CCC(=O)NC2=O)C3=O)c1-c1ccccc1` (stereo not drawn) [Example 52, 3-(5-(1-Methyl-5-phenyl-2-(trifluoromethyl)-1H-imidazol-4-yl)-1-oxoisoindolin-2-yl)piperidine-2,6-dione], on CK1α, the “CK1α Ymin” value was “C (C = 0-10% remaining)” and the DC50 is less than 0.025 µM. For the same compound, in the test on Z-138 cells, the “Ymin (%)” value is listed as “D (0-10% remaining)” and the EC50 was less than 0.01 µM. Moreover, at GSPT1, the half-maximal degradation concentration (DC50) was less than 0.025 µM and the “GSPT1 Ymin” value is on record as “F (F = >75-100% remaining)”.
For the compound `COc1ccc(-c2c(-c3ccc4c(c3)CN(C3CCC(=O)NC3=O)C4=O)cnn2C)c(F)c1` (stereo not drawn) [Example 64], on CK1α, the “CK1α Ymin” value is reported as “C (C = 0-10% remaining)” and the DC50 was less than 0.025 µM. Further, in the test on Z-138 cells, the “Ymin (%)” value is “E (>10-25% remaining)” and the EC50 was less than 0.01 µM. Moreover, on GSPT1, the DC50 was no less than 0.025 µM and the “GSPT1 Ymin” value is given as “F (F = >75-100% remaining)”.
